Where two headings read alike, the source gives them in different places.
Legend:
RON = RON (Homo sapiens, UniProt Q04912); assay: Tyrosine kinase inhibition; assay type: biochemical
RET and ERK activation = assay: Activation of RET and ERK in TT cells; assay type: cell-based, human; conditions: concentration-dependent
EGFR and ERK activation = assay: EGF-stimulated activation of EGFR and ERK in A431 cells; assay type: cell-based, human; conditions: 10 ng/mL EGF, concentration-dependent
C-KIT = C-KIT (Homo sapiens, UniProt P10721); assay: Tyrosine kinase inhibition; assay type: biochemical
Chain of C-KIT (P10721 26-976): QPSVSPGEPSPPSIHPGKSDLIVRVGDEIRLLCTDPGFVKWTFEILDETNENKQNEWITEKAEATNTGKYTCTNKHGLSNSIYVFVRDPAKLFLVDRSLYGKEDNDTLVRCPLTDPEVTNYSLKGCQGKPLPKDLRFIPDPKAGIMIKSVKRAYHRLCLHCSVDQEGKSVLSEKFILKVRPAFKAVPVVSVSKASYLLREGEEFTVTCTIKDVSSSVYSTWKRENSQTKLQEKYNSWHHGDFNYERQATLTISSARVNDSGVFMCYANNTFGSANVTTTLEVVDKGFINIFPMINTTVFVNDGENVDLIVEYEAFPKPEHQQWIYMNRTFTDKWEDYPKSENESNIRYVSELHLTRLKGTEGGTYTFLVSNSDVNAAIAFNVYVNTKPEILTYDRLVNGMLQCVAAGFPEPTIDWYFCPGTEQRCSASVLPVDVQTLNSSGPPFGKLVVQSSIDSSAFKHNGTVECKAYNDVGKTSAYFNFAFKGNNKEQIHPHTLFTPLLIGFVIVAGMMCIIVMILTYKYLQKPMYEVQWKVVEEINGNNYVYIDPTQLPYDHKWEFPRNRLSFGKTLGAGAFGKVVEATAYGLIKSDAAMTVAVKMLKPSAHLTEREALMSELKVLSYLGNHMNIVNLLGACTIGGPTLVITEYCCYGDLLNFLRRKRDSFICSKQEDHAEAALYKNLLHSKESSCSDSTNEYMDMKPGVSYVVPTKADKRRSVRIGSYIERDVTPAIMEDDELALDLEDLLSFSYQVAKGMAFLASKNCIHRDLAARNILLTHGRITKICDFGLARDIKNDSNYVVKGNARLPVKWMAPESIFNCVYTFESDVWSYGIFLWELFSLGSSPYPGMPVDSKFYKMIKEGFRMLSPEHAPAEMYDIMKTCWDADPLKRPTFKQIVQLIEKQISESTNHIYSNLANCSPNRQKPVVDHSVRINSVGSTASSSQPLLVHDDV

Metabolites in plasma [1] = conditions: monkeys
[2] = system: RET fusion-positive NSCLC; assay: Tumor response by RECIST 1.1 (ORR, DCR, DOR, PFS), phase 1/2; assay type: in vivo, human; conditions: for Best response: Complete response / Best response: Not evaluable / Best response: Partial response / Best response: Progressive disease / Best response: Stable disease: ERS, investigator-assessed RECIST 1.1; for PFS: patient with previous RET-TKI treatment
Experimental: Treatment-emergent adverse events (TEAEs) were documented during the entire study period. The predefined adverse event of special interest (AESI) was ≥ grade 3 prolonged QT interval. Tumor imaging was performed using contrast-enhanced computed tomography or magnetic resonance imaging at screening, Day 28 of the first cycle, then approximately every eight weeks till the end of the study for phase 1; in phase 2, imaging was scheduled at screening, and every eight weeks during the first 40 weeks, followed by every 12 weeks for the rest of the study period. RECIST 1.1 was used by the independent review committee or investigators for assessment of tumor response. After the original assessment, a repeated assessment was required around four weeks later to confirm a complete or partial response.
The primary endpoints of phase 1 were to investigate the MTD, dose-limiting toxicities, and the incidence and severity of TEAEs. Each TEAE was graded according to the Common Terminology Criteria for Adverse Events (CTCAE, version 5.0) and coded by Medical Dictionary for Regulatory Activities (MedDRA, version 21.0). The secondary endpoints included calculating PK parameters, assessing the ORR and DCR at the recommended dose by investigators as per RECIST 1.1. The exploratory endpoint was PFS.
The primary endpoint of phase 2 was the independent review committee evaluated ORR using RECIST 1.1. The secondary endpoints included investigators assessed ORR; DCR, PFS, and DOR by the independent review committee and investigators; overall survival and TEAEs. Each TEAE was graded according to CTCAE version 5.0 and coded by MedDRA (version 24.0). The phase 2 trial is ongoing; not all endpoints are reported in this paper.
The full analysis set consisted of all patients who had administered at least one dose of HA121-28 and was used to calculate the baseline characteristics, OS, and PFS results. The safety set included all patients who had administered at least one dose of the HA121-28 and had at least one safety-related observation. This population was used for analysis of TEAEs. The efficacy evaluable set consisted of patients who had administered at least one dose of HA121-28 and completed at least one efficacy assessment following study treatment. This population was used to calculate the ORR, DOR, and DCR. In addition, the ORRs for subgroup analyses, including age ( < 60, ≥60), ECOG PS (0 or 1), gender (male or female), prior treatment with TKIs (yes or no), brain or liver metastasis (yes or no), were also calculated. The plasma drug concentration-time profile was characterized using PK concentration set that included patients who had administered at least one dose of HA121-28 and had at least one measurable plasma concentration of HA121-28. The PK parameter set was used to calculate PK parameters, which consisted of patients who had administered at least one dose of HA121-28 with at least one valid PK parameter. ORR and DCR were described using the Clopper-Pearson method with two-sided 95% confidence intervals (CIs). PFS and DOR were assessed using the Kaplan-Meier method, including an estimate of the median, along with corresponding 95% CIs. Statistical analyses of clinical outcomes were conducted by SAS (version 9.4 or later) and R software 4.1.0 for genomic DNA from pre-treatment tumor tissue (http://cran.r-project.org).

HT29 cells = assay: Tumor cell proliferation in vitro; assay type: cell-based
Metabolites in plasma [3] = conditions: dogs
Single-dose toxicity = assay type: in vivo, SD rats; conditions: single oral gavage
Experimental: mg/kg. The maximum tolerated dose (MTD) was 500 mg/kg. Gastrointestinal, hepatic, and immune system toxicity may have contributed to the rat deaths.
2.2. Dose expansion phase
[…] To investigate the efficacy of HA121- 28 tablets in patients with advanced solid tumors.
This study is a single- arm, open- label, dose-escalation, and dose-expansion phase 1 clinical studywith single and multiple dosing.

KDR = KDR (Homo sapiens, UniProt P35968); assay: Tyrosine kinase inhibition; assay type: biochemical
Chain of KDR (P35968 20-1356): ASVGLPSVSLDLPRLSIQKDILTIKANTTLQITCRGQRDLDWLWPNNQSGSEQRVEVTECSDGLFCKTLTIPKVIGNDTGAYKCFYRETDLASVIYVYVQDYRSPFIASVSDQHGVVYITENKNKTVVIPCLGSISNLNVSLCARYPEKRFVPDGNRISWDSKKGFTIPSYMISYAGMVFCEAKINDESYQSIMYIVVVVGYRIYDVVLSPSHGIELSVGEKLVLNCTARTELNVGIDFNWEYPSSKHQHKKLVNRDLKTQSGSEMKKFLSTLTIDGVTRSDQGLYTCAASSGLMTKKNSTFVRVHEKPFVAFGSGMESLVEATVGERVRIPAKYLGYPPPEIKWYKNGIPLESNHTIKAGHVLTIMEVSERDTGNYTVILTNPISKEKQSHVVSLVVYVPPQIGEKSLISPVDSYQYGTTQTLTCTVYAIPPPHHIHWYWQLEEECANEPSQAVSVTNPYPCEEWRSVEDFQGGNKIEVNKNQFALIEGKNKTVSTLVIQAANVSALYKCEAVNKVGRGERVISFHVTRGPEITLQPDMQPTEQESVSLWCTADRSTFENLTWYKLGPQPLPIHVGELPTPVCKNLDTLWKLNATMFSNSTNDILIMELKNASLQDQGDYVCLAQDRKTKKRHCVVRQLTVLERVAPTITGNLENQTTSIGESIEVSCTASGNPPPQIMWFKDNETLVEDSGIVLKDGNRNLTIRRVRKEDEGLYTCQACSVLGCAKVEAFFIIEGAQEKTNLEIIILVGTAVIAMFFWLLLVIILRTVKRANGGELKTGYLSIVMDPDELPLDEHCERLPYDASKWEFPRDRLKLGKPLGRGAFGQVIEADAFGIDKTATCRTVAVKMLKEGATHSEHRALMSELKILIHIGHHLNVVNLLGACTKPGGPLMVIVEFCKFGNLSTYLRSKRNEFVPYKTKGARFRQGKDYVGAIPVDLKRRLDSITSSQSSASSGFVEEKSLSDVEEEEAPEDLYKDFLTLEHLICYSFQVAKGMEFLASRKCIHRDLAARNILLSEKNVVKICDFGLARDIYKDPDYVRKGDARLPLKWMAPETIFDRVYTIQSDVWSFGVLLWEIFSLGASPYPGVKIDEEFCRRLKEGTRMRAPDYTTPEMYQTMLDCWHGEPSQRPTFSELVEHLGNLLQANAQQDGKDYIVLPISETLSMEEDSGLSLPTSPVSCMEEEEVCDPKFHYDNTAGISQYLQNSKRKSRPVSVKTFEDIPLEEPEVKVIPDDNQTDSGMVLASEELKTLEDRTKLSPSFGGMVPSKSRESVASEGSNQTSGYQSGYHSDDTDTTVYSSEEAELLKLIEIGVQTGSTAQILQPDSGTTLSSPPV

[4] = 28-day repeated dose toxicity; assay type: in vivo, Beagle dogs
TrkA = TrkA (Homo sapiens, UniProt P04629); assay: Tyrosine kinase inhibition; assay type: biochemical
Chain of TrkA (P04629 33-796): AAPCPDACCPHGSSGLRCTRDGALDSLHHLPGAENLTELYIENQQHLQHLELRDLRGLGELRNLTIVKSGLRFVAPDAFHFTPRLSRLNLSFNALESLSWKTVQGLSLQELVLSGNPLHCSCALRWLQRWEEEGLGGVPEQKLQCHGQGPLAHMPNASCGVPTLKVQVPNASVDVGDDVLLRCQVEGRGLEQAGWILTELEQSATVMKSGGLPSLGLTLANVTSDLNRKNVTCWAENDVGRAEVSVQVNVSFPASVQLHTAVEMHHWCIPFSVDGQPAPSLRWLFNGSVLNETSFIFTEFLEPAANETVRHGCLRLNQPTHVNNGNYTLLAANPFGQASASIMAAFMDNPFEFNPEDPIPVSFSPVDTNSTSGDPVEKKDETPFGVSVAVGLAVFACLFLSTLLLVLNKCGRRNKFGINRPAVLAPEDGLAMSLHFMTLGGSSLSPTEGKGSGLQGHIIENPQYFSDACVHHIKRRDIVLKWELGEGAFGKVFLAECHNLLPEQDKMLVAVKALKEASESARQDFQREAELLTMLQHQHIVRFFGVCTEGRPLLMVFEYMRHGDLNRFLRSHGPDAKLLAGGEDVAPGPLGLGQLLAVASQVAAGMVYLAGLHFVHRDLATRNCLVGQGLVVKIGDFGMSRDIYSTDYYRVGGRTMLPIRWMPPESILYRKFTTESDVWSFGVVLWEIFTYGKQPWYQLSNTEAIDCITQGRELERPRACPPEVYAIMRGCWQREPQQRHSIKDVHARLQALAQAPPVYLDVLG

EGFR(T790M /L828R) = EGFR(T790M /L828R) (Homo sapiens, UniProt P00533, T790M); assay: Tyrosine kinase inhibition; assay type: biochemical
Chain of UniProt P00533 (P00533 695-1210 T790M, form open): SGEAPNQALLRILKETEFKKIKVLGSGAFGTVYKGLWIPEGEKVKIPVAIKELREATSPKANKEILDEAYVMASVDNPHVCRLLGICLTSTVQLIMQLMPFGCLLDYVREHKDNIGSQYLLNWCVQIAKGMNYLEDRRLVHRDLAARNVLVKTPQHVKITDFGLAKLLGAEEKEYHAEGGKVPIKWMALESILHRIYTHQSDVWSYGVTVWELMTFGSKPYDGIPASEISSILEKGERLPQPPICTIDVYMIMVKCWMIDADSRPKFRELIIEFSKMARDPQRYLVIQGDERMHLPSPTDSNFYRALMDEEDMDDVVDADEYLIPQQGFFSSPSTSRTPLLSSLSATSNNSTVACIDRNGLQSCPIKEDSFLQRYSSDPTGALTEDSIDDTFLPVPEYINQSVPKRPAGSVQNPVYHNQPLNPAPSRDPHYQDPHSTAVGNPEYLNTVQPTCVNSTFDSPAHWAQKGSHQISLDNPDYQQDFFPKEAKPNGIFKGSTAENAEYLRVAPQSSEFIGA

KYSE-150 cells = assay: Tumor cell proliferation in vitro; assay type: cell-based, human
CHL = CHL test; assay type: cell-based
[5] = RET fusion-positive NSCLC, ≥450 mg q.d.

Chain of RON (Q04912 25-1400): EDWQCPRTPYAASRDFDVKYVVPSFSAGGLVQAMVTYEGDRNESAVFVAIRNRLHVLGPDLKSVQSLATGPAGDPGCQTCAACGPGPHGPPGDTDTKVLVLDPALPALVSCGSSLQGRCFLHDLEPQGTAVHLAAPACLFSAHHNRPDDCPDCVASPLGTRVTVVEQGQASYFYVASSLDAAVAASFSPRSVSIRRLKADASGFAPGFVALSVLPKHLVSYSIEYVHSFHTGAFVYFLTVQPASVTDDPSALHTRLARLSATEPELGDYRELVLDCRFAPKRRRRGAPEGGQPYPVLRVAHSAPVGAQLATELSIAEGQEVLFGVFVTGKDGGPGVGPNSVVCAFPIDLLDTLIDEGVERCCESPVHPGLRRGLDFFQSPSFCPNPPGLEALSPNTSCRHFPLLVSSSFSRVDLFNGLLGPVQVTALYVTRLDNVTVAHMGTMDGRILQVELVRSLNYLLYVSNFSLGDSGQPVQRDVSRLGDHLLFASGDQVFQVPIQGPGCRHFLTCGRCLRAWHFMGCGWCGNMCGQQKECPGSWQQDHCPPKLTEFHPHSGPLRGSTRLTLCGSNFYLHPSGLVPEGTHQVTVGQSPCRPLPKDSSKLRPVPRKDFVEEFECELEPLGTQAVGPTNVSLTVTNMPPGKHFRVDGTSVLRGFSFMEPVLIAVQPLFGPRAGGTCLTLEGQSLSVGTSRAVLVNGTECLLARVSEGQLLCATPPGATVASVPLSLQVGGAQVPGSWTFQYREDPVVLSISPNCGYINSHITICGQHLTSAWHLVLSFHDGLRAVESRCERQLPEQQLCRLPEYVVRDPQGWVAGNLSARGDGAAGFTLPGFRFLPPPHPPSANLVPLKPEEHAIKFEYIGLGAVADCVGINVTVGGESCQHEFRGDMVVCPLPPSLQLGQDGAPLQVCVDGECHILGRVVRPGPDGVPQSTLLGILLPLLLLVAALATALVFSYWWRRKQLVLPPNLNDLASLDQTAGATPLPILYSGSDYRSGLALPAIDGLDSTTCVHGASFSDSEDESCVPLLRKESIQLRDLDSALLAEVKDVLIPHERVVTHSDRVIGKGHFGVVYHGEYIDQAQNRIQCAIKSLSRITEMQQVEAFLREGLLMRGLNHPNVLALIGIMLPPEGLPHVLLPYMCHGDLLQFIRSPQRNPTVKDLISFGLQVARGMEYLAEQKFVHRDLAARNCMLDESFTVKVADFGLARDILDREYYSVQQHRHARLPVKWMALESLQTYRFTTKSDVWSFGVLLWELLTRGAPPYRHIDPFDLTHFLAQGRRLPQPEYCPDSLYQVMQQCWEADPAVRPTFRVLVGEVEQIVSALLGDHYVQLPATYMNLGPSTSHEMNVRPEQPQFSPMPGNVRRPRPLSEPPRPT

**Q.** Which results are given for `COc1cc2c(Nc3ccc(Br)cc3F)ncnc2cc1OCCCCN(C)C.Cl.Cl` [HA121-28, N-(4-bromo-2-fluorophenyl)-7-(4-(dimethylamino)butoxy)-6-methoxy quinazolin-4-amine dihydrochloride]?
**A.** IC50 (RON): > 10000 nM; activation of RET and downstream ERK (RET and ERK activation): significantly inhibited; activation of EGFR and downstream ERK (EGFR and ERK activation): significantly inhibited; IC50 (C-KIT): > 10000 nM; number of metabolites found in plasma (Metabolites in plasma [1]): 4; tumor response ([2]; 73 patients with non-RET fusion tumors, phase 1 dose expansion): no response; confirmed ORR (investigator-assessed) ([2]; 97 RET fusion-positive NSCLC patients, ≥450 mg q.d.): 26.8%; Best response: Complete response ([2]; All (N=97)): 0 No. (%); Best response: Not evaluable ([2]; All (N=97)): 4 (4.1) No. (%); Best response: Partial response ([2]; All (N=97)): 26 (26.8) No. (%); Best response: Progressive disease ([2]; All (N=97)): 23 (23.7) No. (%); Best response: Stable disease ([2]; All (N=97)): 44 (45.4) No. (%); Best response: Complete response ([2]; CCDC6 (N=15)): 0 No. (%); Best response: Not evaluable ([2]; CCDC6 (N=15)): 1 (6.7) No. (%); Best response: Partial response ([2]; CCDC6 (N=15)): 7 (46.7) No. (%); Best response: Progressive disease ([2]; CCDC6 (N=15)): 1 (6.7) No. (%); Best response: Stable disease ([2]; CCDC6 (N=15)): 6 (40.0) No. (%); confirmed ORR ([2]; CCDC6-RET fusion patients): 46.7%; median DOR ([2]; CCDC6-RET fusion patients): 14.0 months; median PFS ([2]; CCDC6-RET fusion patients): 14.9 months; Best response: Complete response ([2]; KIF5B (N=71)): 0 No. (%); Best response: Not evaluable ([2]; KIF5B (N=71)): 2 (2.8) No. (%); Best response: Partial response ([2]; KIF5B (N=71)): 18 (25.4) No. (%); Best response: Progressive disease ([2]; KIF5B (N=71)): 21 (29.6) No. (%); Best response: Stable disease ([2]; KIF5B (N=71)): 30 (42.3) No. (%); confirmed ORR ([2]; KIF5B-RET fusion patients): 25.4%; median DOR ([2]; KIF5B-RET fusion patients): 7.7 months; median PFS ([2]; KIF5B-RET fusion patients): 5.5 months; Best response: Complete response ([2]; Other (N=11)): 0 No. (%); Best response: Not evaluable ([2]; Other (N=11)): 1 (9.1) No. (%); Best response: Partial response ([2]; Other (N=11)): 1 (9.1) No. (%); Best response: Progressive disease ([2]; Other (N=11)): 1 (9.1) No. (%); Best response: Stable disease ([2]; Other (N=11)): 8 (72.7) No. (%); patients with shrinkage in tumor size ([2]; RET fusion-positive NSCLC (66 of 97)): 68.0%; DCR [2, 5]: 72.2%; median PFS [2, 5]: 5.5 months; patients with partial response ([2]; TP53 wild-type group (5 out of 15)): 33.3%; patients with partial response ([2]; concurrent TP53 mutation (1 out of 11)): 9.1%; PFS ([2]; SD, dosing 176 days): 5.52 months; PFS ([2]; confirmed PR, dosing 167 days): 5.36 months; patients with partial response ([2]; phase 1, advanced RET fusion NSCLC with at least one efficacy evaluation, as of April 28, 2021): 7 of 17; ORR ([2]; subgroup ECOG PS of 0): 35.5%; ORR ([2]; subgroup age < 60): 30.9%; ORR ([2]; subgroup with liver metastasis): 37.5%; IC50 (HT29 cells): 5400 ± 813 nM; number of metabolites found in plasma (Metabolites in plasma [3]): 7; maximum tolerated dose (MTD) (Single-dose toxicity): 500 mg/kg; IC50 (KDR): 35.7 nM; no observed adverse effect level (NOAEL) ([4]; 28 d, Beagle dog): 12 mg/kg; highest non-severely toxic dose (HNSTD) ([4]; oral, four consecutive weeks): 12 mg/kg; IC50 (TrkA): 1360 nM; IC50 (EGFR(T790M /L828R)): 166 nM; IC50 (KYSE-150 cells; KYSE-150, metabolite comparison, read-out: IC50): 1080 nM; IC50 (KYSE-150 cells; KYSE-150, read-out: IC50): 1080 ± 220 nM; IC50 (KYSE-150 cells; KYSE-150, read-out: IC50, proliferation): 1080 ± 220 nM; genetic toxicity (CHL): negative

— paper PMC11868595, “Safety, pharmacokinetics and efficacy of HA121-28 in patients with advanced solid tumors and RET fusion-positive non-small-cell lung cancer: a multicenter, open-label, single-arm phase 1/2 trial” (Signal Transduction and Targeted Therapy, 2025)
